ChEMBL document CHEMBL4342420, “Discovery of AM-6494: A Potent and Orally Efficacious β-Site Amyloid Precursor Protein Cleaving Enzyme 1 (BACE1) Inhibitor with in Vivo Selectivity over BACE2” (J Med Chem, 2020)
One block for each compound: values may come before it.

Columns and labels:
[1] = AUCt in Beagle dog at 10 mg/kg, po; assay type: ADME, organism-based, Canis lupus familiaris; settings: in vivo
[2] = Volume of distribution at steady state in monkey at 1 mg/kg, iv; assay type: ADME, organism-based, Macaca mulatta; settings: rhesus monkey, in vivo, read-out: Vdss
[3] = Stability in rat liver microsomes at 1 uM measured after 30 mins in presence of NADPH; assay type: ADME, Microsome; settings: read-out: Stability
[4] = Stability in dog liver microsomes at 0.5 uM measured after 30 mins in presence of NADPH; assay type: ADME, Canis lupus familiaris, Microsome; settings: read-out: Stability
[5] = Volume of distribution at steady state in Beagle dog at 1 mg/kg, iv; assay type: ADME, organism-based, Canis lupus familiaris; settings: in vivo, read-out: Vdss
[6] = Half life in rat at 1 mg/kg, iv; assay type: ADME, organism-based; settings: in vivo
[7] = AUCt in rat at 3 mg/kg, po; assay type: ADME, organism-based; settings: in vivo
[8] = Half life in monkey at 1 mg/kg, iv; assay type: ADME, organism-based, Macaca mulatta; settings: rhesus monkey, in vivo
[9] = Stability in human liver microsomes at 1 uM measured after 30 mins in presence of NADPH; assay type: ADME, Microsome; settings: read-out: Stability
[10] = Clearance in rat at 1 mg/kg, iv; assay type: ADME, organism-based; settings: in vivo
[11] = Half life in Beagle dog at 1 mg/kg, iv; assay type: ADME, organism-based, Canis lupus familiaris; settings: in vivo
[12] = AUCt in cynomolgus monkey at 3 mg/kg, po; assay type: ADME, organism-based, Macaca fascicularis; settings: in vivo
[13] = Clearance in monkey at 1 mg/kg, iv; assay type: ADME, organism-based, Macaca mulatta; settings: rhesus monkey, in vivo
[14] = Oral bioavailability in cynomolgus monkey at 3 mg/kg; assay type: ADME, organism-based, Macaca fascicularis; settings: in vivo
[15] = Oral bioavailability in Beagle dog at 10 mg/kg; assay type: ADME, organism-based, Canis lupus familiaris; settings: in vivo
[16] = Volume of distribution at steady state in rat at 1 mg/kg, iv; assay type: ADME, organism-based; settings: in vivo, read-out: Vdss
[17] = Clearance in Beagle dog at 1 mg/kg, iv; assay type: ADME, organism-based, Canis lupus familiaris; settings: in vivo
[18] = Stability in monkey liver microsomes at 0.5 uM measured after 30 mins in presence of NADPH; assay type: ADME, Macaca mulatta, Microsome; settings: rhesus monkey, read-out: Stability
[19] = Free plasma concentration in depilated mouse at 100 mg/kg, po administered once daily for 13 days measured 24 hrs post-last dose; assay type: ADME, organism-based; settings: in vivo
[20] = Oral bioavailability in rat at 3 mg/kg; assay type: ADME, organism-based; settings: in vivo
[21] = Free plasma concentration in depilated mouse at 10 mg/kg, po administered once daily for 13 days measured 24 hrs post-last dose; assay type: ADME, organism-based; settings: in vivo
[22] = Free plasma concentration in depilated mouse at 30 mg/kg, po administered once daily for 13 days measured 24 hrs post-last dose; assay type: ADME, organism-based; settings: in vivo
[23] = Free plasma concentration in depilated mouse at 120 mg/kg, po administered once daily for 13 days measured 24 hrs post-last dose; assay type: ADME, organism-based; settings: in vivo

Structure (SMILES): COC[C@]12C[C@H]1[C@@](C)(c1cc(NC(=O)c3cnc(OCCC(F)(F)F)cn3)cc(F)c1F)N=C(N)S2
- microsomal CLint at 1 µM [3]: 156 µL/min/mg
- microsomal CLint at 1 µM [9]: 29 µL/min/mg

Structure (SMILES): C[C@]1(c2cc(NC(=O)c3ccc(Cl)cn3)cc(F)c2F)N=C(N)S[C@@]2(C(N)=O)C[C@H]21
- microsomal CLint at 1 µM [3]: < 14 µL/min/mg
- microsomal CLint at 1 µM [9]: < 14 µL/min/mg

Structure (SMILES): NC1=N[C@@]2(CO1)c1cc(-c3cccnc3F)ccc1Oc1c2cc(C2=CCCOC2)nc1F
- Cp(f) [21]: 38 nM
- Cp(f) [22]: 88 nM
- Cp(f) [23]: 328 nM

Continued, values first:

- AUCt [1]: 22 µM·h
- Vd [2]: 17 L/kg
- microsomal CLint at 1 µM [3]: 84 µL/min/mg
- microsomal CLint at 0.5 µM [4]: 62 µL/min/mg
- Vd [5]: 3.2 L/kg
- half-life [6]: 1.5 h
- AUCt [7]: 2.4 µM·h
- half-life [8]: 8.3 h
- microsomal CLint at 1 µM [9]: 41 µL/min/mg
- clearance [10]: 21.7 mL/min/kg
- half-life [11]: 2 h
- AUCt [12]: 2.3 µM·h
- clearance [13]: 35 mL/min/kg
- bioavailability [14]: 28%
- bioavailability [15]: 100%
- Vd [16]: 1.7 L/kg
- clearance [17]: 15 mL/min/kg
- microsomal CLint at 0.5 µM [18]: 146 µL/min/mg
- Cp(f) [19]: 32 nM
- bioavailability [20]: 48%
Structure (SMILES): C#CCOc1cnc(C(=O)Nc2cc(F)c(F)c([C@@]3(C)N=C(N)S[C@@]4(COC)C[C@H]43)c2)cn1

- microsomal CLint at 1 µM [3]: 87 µL/min/mg
- microsomal CLint at 1 µM [9]: 76 µL/min/mg
Structure (SMILES): C#CCOc1cnc(C(=O)Nc2cc(F)c(F)c([C@@]3(C)N=C(N)S[C@@]4(CF)C[C@H]43)c2)cn1
